In US8980907B2, “Dendrimer conjugates” (The Regents of the University of Michigan, priority 2008, dated 2015):

Legend:
Male Hartley guinea pigs = test: Randall & Selitto paw pressure analgesia test in guinea pig; format: in vivo; details: pain threshold at 60, 150, 240 and 360 min after administration
Excerpt: Male Hartley guinea pigs (375-475 g) from Elm Hill labs were allowed free access to food and water before being used in the testing of analgesia effects free morphine, morphine complex, and morphine prodrug A complex
The Randall & Selitto test apparatus (Harvard Instruments) is used to measure analgesia and is based on determination of the animal threshold response to pain induced in the paw by the application of a uniformly increasing pressure from a conical tip upon the dorsal surface of the rear paw which rests on a platform. The weight in grams is taken upon withdrawal of the animals paw from the platform with five repeated measurements of pain threshold recorded for each time point (control, 60, 150, 240, and 360 min) after drug administration. Values are normalized to control and the mean±SEM for each time point are recorded. To reduce tissue damage to the animal a weight limit is used for all animals.

porcine liver esterase = test: In vitro release of morphine from pro-drug with porcine liver esterase (HPLC); format: in vitro ADME; details: 20 μM, porcine liver esterase 0.01 U, phosphate buffer pH 7.0, 2 and 16 hours
Procedure: [drawing 26] was incubated with porcine liver esterase (Sigma, 0.01 U) in 20 mM phosphate buffer pH 7.0 for 2 and 16 hours. At the end of the time periods the samples were frozen at −20° C. and were thawed prior to loading onto the HPLC column.

solid tumors = details: cited from earlier work

Row | SMILES | analgesia / release of morphine in vivo (Male Hartley guinea pigs) | release of morphine from pro-drug (porcine liver esterase) | in vivo activity in solid tumor models (solid tumors)
1 | CN1CC[C@]23c4c5ccc(OC(=O)CCC(=O)OC(C)(C)C)c4O[C@H]2[C@@H](O)C=C[C@H]3[C@H]1C5 [Pro-drug A] | sustained release of morphine | sustained release of morphine | –
2 | N.N.[Cl][Pt][Cl] [cisplatin] | – | – | no effect
